Data on 21 compounds can be found in US6906094B2, “1,2,4-tribsubstituted benzenes as inhibitors of 15-lipoxygenase” (Warner-Lambert Company, priority 2000, dated 2005).

One assay concerns the target T1, human 15-LO (Homo sapiens, UniProt P16050).
T1 construct: made in house; host or cells: Sf9 insect cells (baculovirus, Bac-to-Bac)
T1 sequence (P16050 1-662): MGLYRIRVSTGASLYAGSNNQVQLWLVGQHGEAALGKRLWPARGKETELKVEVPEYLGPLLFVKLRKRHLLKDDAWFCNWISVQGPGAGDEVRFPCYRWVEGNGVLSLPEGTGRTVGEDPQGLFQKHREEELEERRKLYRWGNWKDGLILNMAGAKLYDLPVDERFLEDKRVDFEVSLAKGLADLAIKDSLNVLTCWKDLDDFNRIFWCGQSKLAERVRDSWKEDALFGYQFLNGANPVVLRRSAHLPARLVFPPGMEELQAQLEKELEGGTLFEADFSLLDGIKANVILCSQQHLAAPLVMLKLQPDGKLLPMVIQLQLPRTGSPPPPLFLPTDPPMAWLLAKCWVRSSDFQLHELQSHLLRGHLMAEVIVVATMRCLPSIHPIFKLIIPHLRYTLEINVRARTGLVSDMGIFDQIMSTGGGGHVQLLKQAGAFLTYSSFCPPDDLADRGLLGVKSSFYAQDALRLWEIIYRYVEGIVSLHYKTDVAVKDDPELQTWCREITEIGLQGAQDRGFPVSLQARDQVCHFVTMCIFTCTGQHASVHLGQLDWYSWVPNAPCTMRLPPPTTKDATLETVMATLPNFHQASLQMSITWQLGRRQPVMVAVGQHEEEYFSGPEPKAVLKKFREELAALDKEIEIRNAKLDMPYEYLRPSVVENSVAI
Description: Human Lysate 15-LO Assay (HUM15LO). Particulars: recombinant human 15-LO, 174 μM linoleic acid, 15 minutes at 4° C., 13-HODE quantitated. It is filed as biochemical. The method, then:
In the HUM15LO assay, a test compound of the present invention was incubated with 15-LO enzyme in the presence of the linoleic acid substrate. For example, a known amount of a test compound of the present invention, 100 μL of human 15-LO, and 174 μM linoleic acid in PBS containing 0.2% sodium cholate were incubated for 15 minutes at 4° C. The reaction was stopped with 100 μL of mobile phase and 10 μL of triethyl phosphite. […] 13-HODE was quantitated by comparing peak areas of individual samples with those from a standard curve generated using authentic 13-HODE. The test reaction is compared to a control reaction, which is identical to the test reaction except no test compound of the present invention is present Percent inhibition is calculated as the amount of 13-HODE produced by the test reaction divided by the amount of 13-HODE produced by the control reaction, expressed as a percent.
Human 15-LO was generated in a recombinant 15-lipoxygenase bacculovirus expression system, using Gibco/BRL/Life Technologies' Bac-to-Bac expression reagents; T4 DNA ligase, Kanamycin, Gentamicin, tetracycline, penicillin, streptomycin, Bluo-gal, IPTG, DH10Bac competent cells, SOC, LB medium, Sf-900 II SFM media, Sf9 insect cells, Cell Fectin, and EcoRI, BamHI and KpnI restriction enzymes.
Broadly, the IC50 is the concentration at which inhibition is half-maximal. On to `COc1ccc(-c2cc3cc(F)c(F)cc3[nH]2)cc1NS(=O)(=O)NC(=O)OCCOC(C)C` [Example 34, Carbamic Acid, [[[5-(5,6-difluoro-IH-indol-2-yl)-2-methoxyphenyl]amino]-sulfonyl]-2(1-methylethoxy)ethyl Ester], for which the IC50 amounted to 30 nM.

For the compound `COc1ccc(C(=O)Nc2ccc(F)c(F)c2)cc1NS(=O)(=O)NC(=O)OCCc1ccccc1` [Example 41], the IC50 stood at 69 nM.

Take `COc1ccc(-c2cc3cc(F)c(F)cc3[nH]2)cc1NS(=O)(=O)NC(=O)OCCCO` [Example 45, Carbamic acid, [[[5-(5,6-difluoro-IH-indol-2-yl)-2-methoxyphenyl]amino]-sulfonyl]-3-hydroxypropyl ester]: the IC50 came to 133 nM.

Consider `COc1ccc(-c2cc3cc(F)c(F)cc3[nH]2)cc1NS(=O)(=O)NC(=O)Nc1ccc(C)cc1` [Example 28, Urea, N-[[[5-(5,6-difluoro-IH-indol-2-yl)-2-methoxyphenyl]amino]sulfonyl]-N′-(4-methylphenyl)], for which the concentration for half-maximal inhibition (IC50) worked out at 18 nM.

As to `COc1ccc(C(=O)Nc2ccc(F)c(F)c2)cc1NS(=O)(=O)NC(=O)OCCN1CCOCC1` [Example 2, Carbamic Acid, [[[5[[(3,4-difluorophenyl)amino]carbonyl]-2-methoxyphenyl]-amino]sulfonyl]-, 2-(4morpholinyl)ethyl ester], the half-maximal inhibitory concentration (IC50) was found to be 384 nM.

Regarding `COc1ccc(NS(=O)(=O)NC(=O)Nc2cc(C(=O)Nc3ccc(F)c(F)c3)ccc2OC)cc1` [Example 20, Benzamide, N-(3,4-difluorophenyl)-4-methoxy-3-[[[[[(4-methoxyphenyl)-amino]sulfonyl]amino]carbonyl]amino]], the half-maximal inhibitory concentration (IC50) is 1050 nM.

With `COc1ccc(C(=O)Nc2ccc(F)c(F)c2)cc1NS(=O)(=O)NC(=O)OCCc1cccs1` [Example 7, Carbamic Acid, [[[5-[[(3,4-difluorophenyl)amino]carbonyl]-2-methoxyphenyl]amino]sulfonyl]-, 2-(2-thienyl)ethyl ester], the concentration for half-maximal inhibition (IC50) amounted to 79 nM.

In the case of `CCS(=O)(=O)CCOC(=O)NS(=O)(=O)Nc1cc(C(=O)Nc2ccc(F)c(F)c2)ccc1OC` [Example 8, Carbamic Acid, [[[5-[[(3,4-difluorophenyl)amino]carbonyl]-2-methoxyphenyl]amino]sulfonyl]-, 2-(ethylsulfonyl)ethyl ester], the IC50 amounted to 312 nM.

On to `COc1ccc(C(=O)Nc2ccc(F)c(F)c2)cc1NS(=O)(=O)NC(=O)OCCN(C)C` [Example 5, Carbamic Acid, [[[5-[[(3,4-difluorophenyl)amino]carbonyl]-2-methoxyphenyl]amino]sulfonyl]-, 2-(dimethylamino)ethyl ester], for which the 50% inhibitory concentration (IC50) came to 240 nM.

Regarding `CCOC(=O)NS(=O)(=O)Nc1cc(-c2cc3ccccc3[nH]2)ccc1OC` [Example 26, Carbamic Acid, [[[5-(IH-indol-2-yl)-2-methoxyphenyl]amino]sulfonyl]-, Ethyl Ester], the half-maximal inhibitory concentration (IC50) is 630 nM.

For `COc1ccc(C(=O)Nc2ccc(F)c(F)c2)cc1NS(=O)(=O)NC(=O)Nc1ccccc1` [Example 18, Benzamide, N-(3,4-difluorophenyl)-4-methoxy-3-[[[[(phenylamino)carbonyl]-amino]sulfonyl]amino]], the IC50 came out at 142 nM.

As for `COc1ccc(C(=O)Nc2ccc(F)c(F)c2)cc1NS(=O)(=O)NC(=O)OCCN1CCCC1` [Example 4, Carbamic Acid, [[[5-[[(3,4-difluorophenyl)amino]carbonyl]-2-methoxyphenyl]amino]-suffonyl]-, 2-(1-pyrrolidinyl)ethyl ester], the IC50 came out at 144 nM.

As for `COc1ccc(C(=O)Nc2ccc(F)c(F)c2)cc1NS(=O)(=O)NC(=O)Nc1cc(C(F)(F)F)cc(C(F)(F)F)c1` [Example 62, Benzamide, 3-[[[[[[3,5-bis(trifluoromethyl)phenyl]amino]-carbonyl]amino]-sulfonyl]amino]-N-(3,4-difluorophenyl)-4-methoxy], the concentration for half-maximal inhibition (IC50) turned out to be 173 nM.

For the compound `COc1ccc(C(=O)Nc2ccc(F)c(F)c2)cc1NS(=O)(=O)NC(=O)Nc1cccc([N+](=O)[O-])c1` [Example 60, Benzamide, N-(3,4-difluorophenyl)-4-methoxy-3-[[[[[(3-nitrophenyl) -amino]carbonyl]amino]sulfonyl]amino]], the half-maximal inhibitory concentration (IC50) stood at 25 nM.

`CCOC(=O)NS(=O)(=O)Nc1cc(C(=O)Nc2ccc(F)c(F)c2)ccc1OC` [Example 19, Carbamic Acid, [[[5-[[(3,4-difluorophenyl)amino]carbonyl]-2-methoxyphenyl]amino]sulfonyl]-, Ethyl Ester]: the IC50 amounted to 339 nM.

With `COc1ccc(C(=O)Nc2ccc(F)c(F)c2)cc1NS(=O)(=O)NC(=O)Nc1ccccc1` [Example 67, Benzamide, N-(3,4-difluorophenyl)-4-methoxy-3-[[[[(phenylamino)carbonyl]-amino]sulfonyl]amino]], the IC50 amounted to 182 nM.

For `COc1ccc(C(=O)Nc2ccc(F)c(F)c2)cc1NS(=O)(=O)NC(=O)OCCCN(C)C` [Example 3, Carbamic Acid, [[(5-[[(3,4-diflu rophenyl)amino]carbonyl]-2-methoxyphenyl]amino]sulfonyl]-, 3-(dimethylamino)propyl Ester], the IC50 came to 408 nM.

In the case of `COc1ccc(C(=O)Nc2ccc(F)c(F)c2)cc1NS(=O)(=O)NC(=O)OCCCBr` [Example 9, Carbamic Acid, [[[5-[[(3,4-difluorophenyl)amino]carbonyl]-2-methoxyphenyl]amino]sulfonyl]-, 3-bromopropyl ester], the IC50 was found to be 154 nM.

As for `COc1ccc(C(=O)Nc2ccc(F)c(F)c2)cc1NS(=O)(=O)NC(=O)Nc1ccc(N)cc1` [Example 63, Benzamide, 3-[[[[[(4-aminophenyl)amino]carbonyl]amino]sulfonyl]amino]-N-(3,4-difluorophenyl)-4-methoxy-, mono(trifluoroacetate)], the IC50 stood at 214 nM.

With “Carbamic Acid, [[[5-[[(3,4-difluorophenyl)amino]carbonyl]-2-methoxyphenyl]amino]sulfonyl]methyl-, Ethyl ester [Example 69]”, the IC50 came out at 154 nM.

For another assay, the target named is T2, rabbit reticulocyte 15-LO (Oryctolagus cuniculus, UniProt P12530).
T2 construct: 15-LO is obtained from phenylhydrazine-treated rabbits and purified according to the method of Rapoport; from tissue; host or cells: reticulocytes of phenylhydrazine-treated rabbits
T2 sequence (P12530 1-663): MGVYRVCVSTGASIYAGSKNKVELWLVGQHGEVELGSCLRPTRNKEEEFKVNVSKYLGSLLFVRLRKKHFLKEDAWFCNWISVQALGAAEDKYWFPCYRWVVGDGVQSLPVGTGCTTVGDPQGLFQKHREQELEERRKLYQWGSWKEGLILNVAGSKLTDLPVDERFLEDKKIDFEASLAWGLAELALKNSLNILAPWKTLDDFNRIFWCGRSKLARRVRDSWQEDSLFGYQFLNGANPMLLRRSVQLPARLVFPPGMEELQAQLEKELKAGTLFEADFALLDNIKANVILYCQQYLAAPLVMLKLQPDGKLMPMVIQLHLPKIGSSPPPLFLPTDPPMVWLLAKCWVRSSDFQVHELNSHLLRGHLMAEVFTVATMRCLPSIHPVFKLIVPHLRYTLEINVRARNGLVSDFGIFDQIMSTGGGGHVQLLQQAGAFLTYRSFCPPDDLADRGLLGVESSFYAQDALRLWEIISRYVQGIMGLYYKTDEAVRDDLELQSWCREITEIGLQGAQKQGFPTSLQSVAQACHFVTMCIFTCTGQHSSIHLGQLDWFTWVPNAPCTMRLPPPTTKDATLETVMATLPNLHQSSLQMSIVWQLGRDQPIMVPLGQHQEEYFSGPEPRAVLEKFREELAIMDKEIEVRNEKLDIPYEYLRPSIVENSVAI
The assay is described as follows: Rabbit Reticulocyte 15-LO Assay (H15LO). The assay is classed as biochemical. Particulars: 2 U rabbit reticulocyte 15-LO, 174 μM linoleic acid, 15 minutes at 4° C., 13-HODE quantitated. Here is the method: In the H15LO assay, a test compound was incubated with 15-LO enzyme in the presence of the linoleic acid substrate. For example, 2 units (U) of rabbit reticulocyte 15-LO and 174 μM linoleic acid were incubated with a known amount of a test compound of the present invention for 15 minutes at 4° C. The total reaction volume was 100 μL in phosphate buffer saline (PBS) containing 0.2% sodium cholate. The reaction was stopped with 100 μL of mobile phase and […] of triethyl phosphite. […] 13-HODE was quantitated by comparing peak areas of individual samples with those from a standard curve generated using authentic 13-HODE.
15-LO is obtained from phenylhydrazine-treated rabbits and purified according to the method of Rapoport (Rapoport et al., European Journal of Biochemistry, 1979;96:545-561).
In the case of `COc1ccc(-c2cc3cc(F)c(F)cc3[nH]2)cc1NS(=O)(=O)NC(=O)OCCOC(C)C` [Example 34, Carbamic Acid, [[[5-(5,6-difluoro-IH-indol-2-yl)-2-methoxyphenyl]amino]-sulfonyl]-2(1-methylethoxy)ethyl Ester], the concentration for half-maximal inhibition (IC50) was 26 nM.

In turn, `COc1ccc(C(=O)Nc2ccc(F)c(F)c2)cc1NS(=O)(=O)NC(=O)OCCc1ccccc1` [Example 41] had an IC50 of 13 nM.

As for `COc1ccc(-c2cc3cc(F)c(F)cc3[nH]2)cc1NS(=O)(=O)NC(=O)OCCCO` [Example 45, Carbamic acid, [[[5-(5,6-difluoro-IH-indol-2-yl)-2-methoxyphenyl]amino]-sulfonyl]-3-hydroxypropyl ester], it took 80 nM to reach half-maximal inhibition (IC50).

For the compound `COc1ccc(-c2cc3cc(F)c(F)cc3[nH]2)cc1NS(=O)(=O)NC(=O)Nc1ccc(C)cc1` [Example 28, Urea, N-[[[5-(5,6-difluoro-IH-indol-2-yl)-2-methoxyphenyl]amino]sulfonyl]-N′-(4-methylphenyl)], half-maximal inhibition (IC50) required 39 nM.

In the case of `COc1ccc(-c2cc3cc(F)c(F)cc3[nH]2)cc1NS(=O)(=O)NC(=O)OC(C)(C)C` [Example 53, Carbamic Acid, [[[5-(5,6-difluoro-indol-2-yl)-2-methoxyphenyl]amino]-sulfonyl]-, 1,1-dimethylethyl ester], the IC50 was found to be 23 nM.
